Laboratory results as given in the NIST ThermoML archive (doi:10.1021/je900597n).
± gives the expanded uncertainty stated by the source.

Test: xn = mol fraction of the nth substance listed
Settings: 101 kPa, Liquid; for speed of sound: Pulse-echo method

CCCNCCC [dipropylamine] + COC(C)(C)C
speed of sound (288.15 K, x2 = 0): 1235.1 ± 1.2 m/s
speed of sound (288.15 K, x2 = 0.0455): 1226.5 ± 1.2 m/s
speed of sound (288.15 K, x2 = 0.0993): 1218.5 ± 1.2 m/s
speed of sound (288.15 K, x2 = 0.1886): 1206.8 ± 1.2 m/s
speed of sound (288.15 K, x2 = 0.304): 1191.2 ± 1.2 m/s
speed of sound (288.15 K, x2 = 0.3981): 1179 ± 1.2 m/s
speed of sound (288.15 K, x2 = 0.4954): 1164.9 ± 1.2 m/s
speed of sound (288.15 K, x2 = 0.5839): 1152.3 ± 1.2 m/s
speed of sound (288.15 K, x2 = 0.7057): 1131.9 ± 1.2 m/s
speed of sound (288.15 K, x2 = 0.7685): 1121.7 ± 1.2 m/s
speed of sound (288.15 K, x2 = 0.8876): 1103.9 ± 1.2 m/s
speed of sound (288.15 K, x2 = 0.9337): 1097 ± 1.2 m/s
mass density (288.15 K, x2 = 0): 745.064 ± 0.82 kg/m3
mass density (288.15 K, x2 = 0.0455): 744.529 ± 0.82 kg/m3
mass density (288.15 K, x2 = 0.0993): 743.741 ± 0.82 kg/m3
mass density (288.15 K, x2 = 0.1886): 743.725 ± 0.82 kg/m3
mass density (288.15 K, x2 = 0.304): 744.015 ± 0.82 kg/m3
mass density (288.15 K, x2 = 0.3981): 744.373 ± 0.82 kg/m3
mass density (288.15 K, x2 = 0.4954): 744.92 ± 0.82 kg/m3
mass density (288.15 K, x2 = 0.5839): 745.36 ± 0.82 kg/m3
mass density (288.15 K, x2 = 0.7057): 745.893 ± 0.82 kg/m3
mass density (288.15 K, x2 = 0.7685): 746.206 ± 0.82 kg/m3
mass density (288.15 K, x2 = 0.8876): 746.684 ± 0.81 kg/m3
mass density (288.15 K, x2 = 0.9337): 746.947 ± 0.81 kg/m3
speed of sound (293.15 K, x2 = 0): 1213.4 ± 1.2 m/s
speed of sound (293.15 K, x2 = 0.0455): 1204.6 ± 1.2 m/s
speed of sound (293.15 K, x2 = 0.0993): 1196.6 ± 1.2 m/s
speed of sound (293.15 K, x2 = 0.1886): 1184.9 ± 1.2 m/s
speed of sound (293.15 K, x2 = 0.304): 1169.1 ± 1.2 m/s
speed of sound (293.15 K, x2 = 0.3981): 1156.8 ± 1.2 m/s
speed of sound (293.15 K, x2 = 0.4954): 1142.8 ± 1.2 m/s
speed of sound (293.15 K, x2 = 0.5839): 1130 ± 1.2 m/s
speed of sound (293.15 K, x2 = 0.7057): 1109.4 ± 1.2 m/s
speed of sound (293.15 K, x2 = 0.7685): 1099.1 ± 1.2 m/s
speed of sound (293.15 K, x2 = 0.8876): 1080.8 ± 1.1 m/s
speed of sound (293.15 K, x2 = 0.9337): 1073.6 ± 1.1 m/s
mass density (293.15 K, x2 = 0): 740.501 ± 0.82 kg/m3
mass density (293.15 K, x2 = 0.0455): 739.961 ± 0.83 kg/m3
mass density (293.15 K, x2 = 0.0993): 739.141 ± 0.83 kg/m3
mass density (293.15 K, x2 = 0.1886): 739.088 ± 0.83 kg/m3
mass density (293.15 K, x2 = 0.304): 739.319 ± 0.83 kg/m3
mass density (293.15 K, x2 = 0.3981): 739.628 ± 0.83 kg/m3
mass density (293.15 K, x2 = 0.4954): 740.107 ± 0.83 kg/m3
mass density (293.15 K, x2 = 0.5839): 740.49 ± 0.82 kg/m3
mass density (293.15 K, x2 = 0.7057): 740.912 ± 0.82 kg/m3
mass density (293.15 K, x2 = 0.7685): 741.193 ± 0.82 kg/m3
mass density (293.15 K, x2 = 0.8876): 741.588 ± 0.82 kg/m3
mass density (293.15 K, x2 = 0.9337): 741.806 ± 0.82 kg/m3
speed of sound (298.15 K, x2 = 0): 1191.9 ± 1.2 m/s
speed of sound (298.15 K, x2 = 0.0455): 1182.9 ± 1.2 m/s
speed of sound (298.15 K, x2 = 0.0993): 1174.9 ± 1.2 m/s
speed of sound (298.15 K, x2 = 0.1886): 1163 ± 1.2 m/s
speed of sound (298.15 K, x2 = 0.304): 1147.2 ± 1.2 m/s
speed of sound (298.15 K, x2 = 0.3981): 1134.8 ± 1.2 m/s
speed of sound (298.15 K, x2 = 0.4954): 1120.8 ± 1.2 m/s
speed of sound (298.15 K, x2 = 0.5839): 1107.8 ± 1.2 m/s
speed of sound (298.15 K, x2 = 0.7057): 1087 ± 1.1 m/s
speed of sound (298.15 K, x2 = 0.7685): 1076.6 ± 1.1 m/s
speed of sound (298.15 K, x2 = 0.8876): 1057.9 ± 1.1 m/s
speed of sound (298.15 K, x2 = 0.9337): 1050.7 ± 1.1 m/s
mass density (298.15 K, x2 = 0): 735.924 ± 0.83 kg/m3
mass density (298.15 K, x2 = 0.0455): 735.381 ± 0.83 kg/m3
mass density (298.15 K, x2 = 0.0993): 734.529 ± 0.83 kg/m3
mass density (298.15 K, x2 = 0.1886): 734.436 ± 0.83 kg/m3
mass density (298.15 K, x2 = 0.304): 734.607 ± 0.83 kg/m3
mass density (298.15 K, x2 = 0.3981): 734.96 ± 0.83 kg/m3
mass density (298.15 K, x2 = 0.4954): 735.272 ± 0.83 kg/m3
mass density (298.15 K, x2 = 0.5839): 735.593 ± 0.83 kg/m3
mass density (298.15 K, x2 = 0.7057): 735.904 ± 0.83 kg/m3
mass density (298.15 K, x2 = 0.7685): 736.153 ± 0.83 kg/m3
mass density (298.15 K, x2 = 0.8876): 736.455 ± 0.83 kg/m3
mass density (298.15 K, x2 = 0.9337): 736.641 ± 0.83 kg/m3
speed of sound (303.15 K, x2 = 0): 1170.4 ± 1.2 m/s
speed of sound (303.15 K, x2 = 0.0455): 1161.5 ± 1.2 m/s
speed of sound (303.15 K, x2 = 0.0993): 1153.4 ± 1.2 m/s
speed of sound (303.15 K, x2 = 0.1886): 1141.4 ± 1.2 m/s
speed of sound (303.15 K, x2 = 0.304): 1125.5 ± 1.2 m/s
speed of sound (303.15 K, x2 = 0.3981): 1112.9 ± 1.2 m/s
speed of sound (303.15 K, x2 = 0.4954): 1099.1 ± 1.2 m/s
speed of sound (303.15 K, x2 = 0.5839): 1085.9 ± 1.1 m/s
speed of sound (303.15 K, x2 = 0.7057): 1064.9 ± 1.1 m/s
speed of sound (303.15 K, x2 = 0.7685): 1054.4 ± 1.1 m/s
speed of sound (303.15 K, x2 = 0.8876): 1035.3 ± 1.1 m/s
speed of sound (303.15 K, x2 = 0.9337): 1028 ± 1.1 m/s
mass density (303.15 K, x2 = 0): 731.333 ± 0.84 kg/m3
mass density (303.15 K, x2 = 0.0455): 730.779 ± 0.84 kg/m3
mass density (303.15 K, x2 = 0.0993): 729.903 ± 0.84 kg/m3
mass density (303.15 K, x2 = 0.1886): 729.765 ± 0.84 kg/m3
mass density (303.15 K, x2 = 0.304): 729.854 ± 0.84 kg/m3
mass density (303.15 K, x2 = 0.3981): 730.165 ± 0.84 kg/m3
mass density (303.15 K, x2 = 0.4954): 730.41 ± 0.84 kg/m3
mass density (303.15 K, x2 = 0.5839): 730.664 ± 0.84 kg/m3
mass density (303.15 K, x2 = 0.7057): 730.891 ± 0.84 kg/m3
mass density (303.15 K, x2 = 0.7685): 731.058 ± 0.84 kg/m3
mass density (303.15 K, x2 = 0.8876): 731.289 ± 0.84 kg/m3
mass density (303.15 K, x2 = 0.9337): 731.421 ± 0.84 kg/m3
speed of sound (308.15 K, x2 = 0): 1149 ± 1.2 m/s
speed of sound (308.15 K, x2 = 0.0455): 1140.1 ± 1.2 m/s
speed of sound (308.15 K, x2 = 0.0993): 1132 ± 1.2 m/s
speed of sound (308.15 K, x2 = 0.1886): 1120 ± 1.2 m/s
speed of sound (308.15 K, x2 = 0.304): 1103.9 ± 1.2 m/s
speed of sound (308.15 K, x2 = 0.3981): 1091.2 ± 1.2 m/s
speed of sound (308.15 K, x2 = 0.4954): 1076.8 ± 1.1 m/s
speed of sound (308.15 K, x2 = 0.5839): 1063.8 ± 1.1 m/s
speed of sound (308.15 K, x2 = 0.7057): 1042.5 ± 1.1 m/s
speed of sound (308.15 K, x2 = 0.7685): 1032 ± 1.1 m/s
speed of sound (308.15 K, x2 = 0.8876): 1012.9 ± 1.1 m/s
speed of sound (308.15 K, x2 = 0.9337): 1005.4 ± 1.1 m/s
mass density (308.15 K, x2 = 0): 726.732 ± 0.85 kg/m3
mass density (308.15 K, x2 = 0.0455): 726.199 ± 0.85 kg/m3
mass density (308.15 K, x2 = 0.0993): 725.268 ± 0.85 kg/m3
mass density (308.15 K, x2 = 0.1886): 725.081 ± 0.85 kg/m3
mass density (308.15 K, x2 = 0.304): 725.082 ± 0.85 kg/m3
mass density (308.15 K, x2 = 0.3981): 725.325 ± 0.85 kg/m3
mass density (308.15 K, x2 = 0.4954): 725.531 ± 0.85 kg/m3
mass density (308.15 K, x2 = 0.5839): 725.713 ± 0.85 kg/m3
mass density (308.15 K, x2 = 0.7057): 725.831 ± 0.85 kg/m3
mass density (308.15 K, x2 = 0.7685): 725.925 ± 0.85 kg/m3
mass density (308.15 K, x2 = 0.8876): 726.066 ± 0.85 kg/m3
mass density (308.15 K, x2 = 0.9337): 726.159 ± 0.85 kg/m3
